From PMC5643462, “Encrypted Antimicrobial Peptides from Plant Proteins” (Scientific Reports, 2017)
No end group written: not given here.

What was measured:
human red blood cells = assay: Cytotoxicity: hemolysis of human red blood cells; type: cell-based; conditions: for Concentration that induced 50% hemolysis: red cells of human
Procedure: The cytotoxicity of the selected IAPS was performed using human red blood cells in strict accordance with relevant guidelines and regulations (Ethical committee – UnB # 1.939.989). Different concentrations of IAPs (128 µM–0.5 µM) were incubated with a final concentration of 2.5 × 10^5 red blood cells.mL^−1. Briefly, 100 µL of red blood cells was incubated with 100 µL of different concentrations of each IAP, prepared in PBS, for 30 minutes at 37 °C, with constant shaking at 120 rpm. PBS and Triton X-100 0.1% (v/v) were used as negative and positive controls, respectively. After incubation, the solution was centrifuged at 900 × g for five minutes followed by transferring 50 µL of the supernatant to flat-bottom polystyrene 96-well micro plates containing 50 µL of PBS. Microplate reading was performed at a BioTek Multireader, using a wavelength of 540 nm. All tests were performed in 3 biological replicates, composed of 3 biological repetitions each. The obtained data was subtracted by the negative control and relative to the positive control, defined as 100% lysis.

[1] = Far-UV circular dichroism, helix percentage in buffer and with LUVs; type: physicochemical; conditions: room temperature, from [θ]222 nm, * = β-sheet structure; for %Hel 2:1 DMPC/DMPG: 40 μM peptide + 2 mM 2:1 DMPC:DMPG LUVs (50 fold excess); for %Hel 2:1 DMPC/DMPG / %Hel DMPC: pH 7.4 buffer; for %Hel DMPC: 40 μM peptide + 2 mM DMPC LUVs (50 fold excess); for %Hel buffer: 40 μM peptide in 20 mM sodium phosphate, 150 mM NaCl, pH 7.4
Procedure: DMPC and 2:1 DMPC:DMPG (w/w) were dissolved in chloroform and methanol (3:1 v/v) at 10 mg/mL, dried using a rotary evaporator and left 3 hours under high vacuum in a freeze dryer. Phospholipids were then dissolved in 20 mM Sodium phosphate – NaOH, 150 mM NaCl, pH 7.4 and hand-shaken until the formation of a cloudy solution, which was passed 19 times through a 100 nm polycarbonate membrane at 30 °C for the formation of large unilamelar vesicles (LUVs) using a mini-extruder (Avanti Polar Lipids). Phospholipid concentration was estimated according to the ammonium ferrothiocyanate method.
Experiments were conducted on a Jasco-J815 spectropolarimeter (Jasco International Co.). Spectra were acquired at room temperature from 200 to 260 nm as an average of 4 readings using a 0.1 cm path length cell, data pitch of 0.2 nm and a response time of 0.5 s. Data Scans of buffer and 2 mM DMPC and 2:1 DMPC:DMPG LUVs solutions were acquired and subtracted from each peptide data. Peptides were scanned at a concentration of 40 μM in buffer and then 50 fold excess of DMPC and 2:1 DMPC:DMPG LUVs were added, resulting in a molar ratio of 0.02 peptide/phospholipid. The spectra were converted to mean residue ellipticity and readings at [θ]222 nm were used to estimate helix percentages.

[2] = tested on: Moniliophthora perniciosa basidiospores; assay: Inhibition of M. perniciosa basidiospore germination; type: cell-based; conditions: 1 × 10^6 basidiospores mL^−1, one hour with peptide (256-0.5 µM), 24 °C, counted after 4 hours on agar slides, biological triplicates
Procedure: The antimicrobial potential of T. cacao IAPs for inhibiting M. perniciosa basidiospores was evaluated. Briefly, 1 × 10^6 basidiospores mL^−1 were incubated for one hour with different concentrations of T. cacao IAPs (256-0.5 µM), at 24 °C, in a final volume of 100 µL. Autoclaved dH20 was used as a control. After incubation, 3 droplets of 10 µL each were placed in a slide coated with agar (1.2% (w/v)). Slides were incubated for 4, 24 and 48 hours at 24 °C. Slides were visualized using a DMRXA light microscope (Leica). Approximately 150–200 basidiospores per droplet from each time point were counted and compared to the control condition, which was defined as 100% germination. All experiments were performed in biological triplicates, with 3 technical repetitions each.

Substance | Hemolytic activity (% ± SD) at 1 µM (human red blood cells) | Hemolytic activity (% ± SD) at 2 µM (human red blood cells) | Hemolytic activity (% ± SD) at 4 µM (human red blood cells) | Hemolytic activity (% ± SD) at 8 µM (human red blood cells) | Hemolytic activity (% ± SD) at 16 µM (human red blood cells) | Hemolytic activity (% ± SD) at 32 µM (human red blood cells) | Hemolytic activity (% ± SD) at 64 µM (human red blood cells) | Hemolytic activity (% ± SD) at 128 µM (human red blood cells) | Hemolytic activity of human red blood cells (%) SC50 (human red blood cells) | Concentration that induced 50% hemolysis (human red blood cells) | %Hel 2:1 DMPC/DMPG [1] | %Hel DMPC [1] | %Hel buffer [1] | IC50 ([2]; concentration at which at least 50% of basidiospores germination was inhibited, read-out: Inhibitory concentration IC50, M. perniciosa basidiospores germination) | Inhibitory concentration IC95, M. perniciosa basidiospores germination ([2]; concentration at which at least 95% of basidiospores germination was inhibited)
ANRLLEAYKMLLKFLGNLR-NH2 [Gr02] | 0.01 ± 0.01% | 0.38 ± 0.09% | 1.23 ± 0.05% | 4.19 ± 0.78% | 7.01 ± 3.48% | 28.33 ± 4.77% | 46.44 ± 7.63% | 68.42 ± 5.45% | 64 µM | 64 µM | – | – | – | – | –
LIKVVNHVQYNVTLHWHGIR [Tc07, IAP from Theobroma cacao, Laccase 17] | – | – | – | – | – | – | – | – | – | – | 19.9% | 17.1% | 23.5% | – | –
FFYNVIKIYGNMAGRISK-NH2 [Cs03] | 0.00 ± 0.00% | 0.02 ± 0.00% | 0.01 ± 0.00% | 0.00 ± 0.00% | 0.21 ± 0.05% | 0.99 ± 0.34% | 4.11 ± 1.22% | 14.51 ± 1.55% | >128 µM | – | – | – | – | – | –
GAKLAKKQVRALGKFFSF-NH2 [At03] | 0.00 ± 0.00% | 0.00 ± 0.00% | 0.04 ± 0.01% | 0.02 ± 0.00% | 0.00 ± 0.00% | 0.03 ± 0.00% | 0.17 ± 0.08% | 0.34 ± 0.11% | >128 µM | – | – | – | – | – | –
GKILKYLLYLLRKYANLIIR-NH2 [Tc02] | 0.00 ± 0.00% | 0.00 ± 0.00% | 0.40 ± 0.26% | 2.89 ± 1.12% | 6.30 ± 1.59% | 17.39 ± 1.15% | 29.15 ± 2.57% | 50.15 ± 5.15% | 64 µM | 64 µM | – | – | – | 8 µM | 16 µM
VALRLAKEVIKVQQGW [Tc01, IAP from Theobroma cacao, Embryo defective 1381 isoform 2] | – | – | – | – | – | – | – | – | – | – | 64.8% | 4.5% | 5.0% | – | –
GIVLKDLFSEKLRRYKIVIG [Tc09, IAP from Theobroma cacao, NB-ARC domain-containing disease resistance protein, putative] | – | – | – | – | – | – | – | – | – | – | 0.0% | 19.3% | 12.3% | – | –
KVLSKVHTLLKAVLAL-NH2 [At02] | 0.04 ± 0.00% | 0.03 ± 0.00% | 0.02 ± 0.00% | 0.00 ± 0.00% | 0.30 ± 0.16% | 2.41 ± 0.98% | 10.28 ± 4.3% | 23.10 ± 3.41% | >128 µM | – | – | – | – | – | –
LLDKLKRTLLSIEAVLI [Tc11, IAP from Theobroma cacao, LRR and NB-ARC domains-containing disease resistance protein] | – | – | – | – | – | – | – | – | – | – | 56.7% | 57.0% | 45.8% | – | –
